Reference: PubChem BioAssay AID1963972 (Molecular Pharmacology Branch, DTP, NCI, 2024)

Test system: 945468-187-T-J2-PDC spheroids viability
Assay: Anticancer human tumor 945468-187-T-J2-PDC patient-derived rectal carcinoma cell line growth inhibition [PI3K]
Details: spheroids with HUVEC and MSC; for IC50: curve of first compound; for viability, T/C: stronger effect = lower value
In short: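 Stroma-containing spheroids: tumor line, pooled-donor HUVEC, hMSC. Treatments: targeted agents with PI3K inhibitors. Dosing: clinically relevant, half-log spacing, 10 microM ceiling without known Cmax. Read-out: cell viability.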
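Further: spheroids exposed to compounds for seven days before reading.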

Work on CC1(C)CCC(Nc2ncc(C(F)(F)F)c(-c3c[nH]c4c(P(C)(C)=O)c(C#N)ccc34)n2)CN1 (centres undefined) + CC(Nc1ccc2c(c1)OCCn1cc(N3C(=O)OCC3C(F)F)nc1-2)C(N)=O yielded an IC50 (second compound 0.00316 µM) of 798 nM, an IC50 (second compound 0.01 µM) of 1310 nM and an IC50 (second compound 0.0316 µM) of 2110 nM. The IC50 (second compound 0.1 µM) was 1060 nM, the IC50 (second compound 0.316 µM) was 896 nM and the IC50 (second compound 1 µM) was 4240 nM. The viability, T/C (second compound 0.00316 µM, first compound 0.0316 µM) was 96%, the viability, T/C (second compound 0.00316 µM, first compound 0.1 µM) was 115% and the viability, T/C (second compound 0.00316 µM, first compound 0.316 µM) was 71.8%. It also gave a viability, T/C (second compound 0.00316 µM, first compound 1 µM) of 50.2%, a viability, T/C (second compound 0.00316 µM, first compound 3.16 µM) of 34.2% and a viability, T/C (second compound 0.00316 µM, first compound 10 µM) of 49.6%. It also gave a viability, T/C (second compound 0.01 µM, first compound 0.0316 µM) of 91.6%, a viability, T/C (second compound 0.01 µM, first compound 0.1 µM) of 92.7% and a viability, T/C (second compound 0.01 µM, first compound 0.316 µM) of 88.8%. The viability, T/C (second compound 0.01 µM, first compound 1 µM) was 52.5%, the viability, T/C (second compound 0.01 µM, first compound 3.16 µM) was 40.5% and the viability, T/C (second compound 0.01 µM, first compound 10 µM) was 42.7%. It also gave a viability, T/C (second compound 0.0316 µM, first compound 0.0316 µM) of 82.2%, a viability, T/C (second compound 0.0316 µM, first compound 0.1 µM) of 98.3% and a viability, T/C (second compound 0.0316 µM, first compound 0.316 µM) of 61.1%. For the same compound, the viability, T/C (second compound 0.0316 µM, first compound 1 µM) was 64.3%, the viability, T/C (second compound 0.0316 µM, first compound 3.16 µM) was 42.9% and the viability, T/C (second compound 0.0316 µM, first compound 10 µM) was 43.8%. For the same compound, the viability, T/C (second compound 0.1 µM, first compound 0.0316 µM) was 105%, the viability, T/C (second compound 0.1 µM, first compound 0.1 µM) was 91% and the viability, T/C (second compound 0.1 µM, first compound 0.316 µM) was 81%. For the same compound, the viability, T/C (second compound 0.1 µM, first compound 1 µM) was 48.5%, the viability, T/C (second compound 0.1 µM, first compound 3.16 µM) was 41.8% and the viability, T/C (second compound 0.1 µM, first compound 10 µM) was 51.4%. The viability, T/C (second compound 0.316 µM, first compound 0.0316 µM) was 77.5%, the viability, T/C (second compound 0.316 µM, first compound 0.1 µM) was 103% and the viability, T/C (second compound 0.316 µM, first compound 0.316 µM) was 89.3%. For the same compound, the viability, T/C (second compound 0.316 µM, first compound 1 µM) was 45.8%, the viability, T/C (second compound 0.316 µM, first compound 3.16 µM) was 39.8% and the viability, T/C (second compound 0.316 µM, first compound 10 µM) was 31.6%. The viability, T/C (second compound 1 µM, first compound 0.0316 µM) was 85.3%, the viability, T/C (second compound 1 µM, first compound 0.1 µM) was 76.3% and the viability, T/C (second compound 1 µM, first compound 0.316 µM) was 67.3%. The viability, T/C (second compound 1 µM, first compound 1 µM) was 65.7%, the viability, T/C (second compound 1 µM, first compound 3.16 µM) was 54.6% and the viability, T/C (second compound 1 µM, first compound 10 µM) was 40.1%.
In the case of Cn1cnc2c(F)c(Nc3ccc(Br)cc3Cl)c(C(=O)NOCCO)cc21 + CC(Nc1ncnc2nc[nH]c12)c1cc2cccc(Cl)c2c(=O)n1-c1ccccc1, the IC50 (second compound 0.0316 µM) is reported as over 3000 nM, the IC50 (second compound 0.1 µM) is reported as over 3000 nM and the IC50 (second compound 0.316 µM) is reported as over 3000 nM. For the same compound, the IC50 (second compound 1 µM) was over 3000 nM, the IC50 (second compound 3.16 µM) was over 3000 nM and the IC50 (second compound 10 µM) was over 3000 nM. It also gave a viability, T/C (second compound 0.0316 µM, first compound 0.00949 µM) of 100%, a viability, T/C (second compound 0.0316 µM, first compound 0.03 µM) of 103% and a viability, T/C (second compound 0.0316 µM, first compound 0.0949 µM) of 84.1%. The viability, T/C (second compound 0.0316 µM, first compound 0.3 µM) was 92.8%, the viability, T/C (second compound 0.0316 µM, first compound 0.949 µM) was 92% and the viability, T/C (second compound 0.0316 µM, first compound 3 µM) was 73.7%. It also gave a viability, T/C (second compound 0.1 µM, first compound 0.00949 µM) of 99.3%, a viability, T/C (second compound 0.1 µM, first compound 0.03 µM) of 82.1% and a viability, T/C (second compound 0.1 µM, first compound 0.0949 µM) of 85.1%. The viability, T/C (second compound 0.1 µM, first compound 0.3 µM) was 93%, the viability, T/C (second compound 0.1 µM, first compound 0.949 µM) was 83.1% and the viability, T/C (second compound 0.1 µM, first compound 3 µM) was 74%. The viability, T/C (second compound 0.316 µM, first compound 0.00949 µM) was 111%, the viability, T/C (second compound 0.316 µM, first compound 0.03 µM) was 90.8% and the viability, T/C (second compound 0.316 µM, first compound 0.0949 µM) was 92.4%. For the same compound, the viability, T/C (second compound 0.316 µM, first compound 0.3 µM) was 91.8%, the viability, T/C (second compound 0.316 µM, first compound 0.949 µM) was 81.5% and the viability, T/C (second compound 0.316 µM, first compound 3 µM) was 80.3%. The viability, T/C (second compound 1 µM, first compound 0.00949 µM) was 122%, the viability, T/C (second compound 1 µM, first compound 0.03 µM) was 106% and the viability, T/C (second compound 1 µM, first compound 0.0949 µM) was 79.7%. For the same compound, the viability, T/C (second compound 1 µM, first compound 0.3 µM) was 88.3%, the viability, T/C (second compound 1 µM, first compound 0.949 µM) was 81.8% and the viability, T/C (second compound 1 µM, first compound 3 µM) was 82.7%. It also gave a viability, T/C (second compound 3.16 µM, first compound 0.00949 µM) of 81.6%, a viability, T/C (second compound 3.16 µM, first compound 0.03 µM) of 94.3% and a viability, T/C (second compound 3.16 µM, first compound 0.0949 µM) of 104%. The viability, T/C (second compound 3.16 µM, first compound 0.3 µM) was 107%, the viability, T/C (second compound 3.16 µM, first compound 0.949 µM) was 81.7% and the viability, T/C (second compound 3.16 µM, first compound 3 µM) was 79.9%. The viability, T/C (second compound 10 µM, first compound 0.00949 µM) was 92.7%, the viability, T/C (second compound 10 µM, first compound 0.03 µM) was 94.1% and the viability, T/C (second compound 10 µM, first compound 0.0949 µM) was 97.9%. For the same compound, the viability, T/C (second compound 10 µM, first compound 0.3 µM) was 91.5%, the viability, T/C (second compound 10 µM, first compound 0.949 µM) was 83.8% and the viability, T/C (second compound 10 µM, first compound 3 µM) was 72%.
